Experimental data as given in patent US5696140A, “N-cyano-N'-pyridylguanidines as serotonin antagonists” (Leo Pharmaceutical Products Ltd., priority 1992, dated 1997).
pIC50: −log10 of the molar value.

Experiments:
[1] = system: Yoshida sarcoma cells; test: survival time of Yoshida tumour-bearing rats (LEW/Mol inbred female rats, oral); format: in vivo, rat; settings: untreated 7.5 days
Description: The prolongation of survival time of tumour-bearing rats was studied in LEW/Mol inbred female rats inoculated with Yoshida sarcoma cells (identical to the cells described above) in a number of 2×10^7 cells. Tumour-bearing rats were dosed orally once daily from day 3 after the transfer of tumour cells and until death or until the body-weights had increased by 10% as a consequence of tumour proliferation. The time for death of 50% of the animals was calculated by linear regression analysis.

[2] = system: Yoshida sarcoma cells; test: inhibition of Yoshida sarcoma cell proliferation in vitro ([^3 H]thymidine incorporation, 24 h); format: cell-based; settings: Rattus norvegicus, read-out: Inhibition of tumour cell proliferation IC50
Description: (§1) The inhibition of tumour cell proliferation was studied using Yoshida sarcoma cells, originally derived from rat hepatic tumours induced by the carcinogen o-aminoazotoluene. The cells were cultured in vitro for 24 hours in the presence of the compound under investigation. DNA synthesis was measured by incorporation of [^3 H]thymidine, and the median inhibitory concentrations (IC50) of the compounds were calculated. The cytotoxicity of the compounds in normal lymphocytes was assessed by the dye exclusion method and expressed as the concentrations resulting in 50% viability (VC50).

[3] = cytotoxicity in normal lymphocytes, dye exclusion method; format: cell-based; settings: concentration resulting in 50% viability, read-out: Effect on viability of normal cells VC50
Description: as §1

[4] = system: human small cell lung carcinoma (NYH); test: inhibition of tumour cell proliferation in vitro, NYH; format: cell-based
[5] = system: human breast cancer (MCF-7); test: inhibition of tumour cell proliferation in vitro, MCF-7; format: cell-based; settings: MCF7
[6] = system: human small cell lung carcinoma (NYH); test: therapeutic antitumour effect in nude mice carrying a human small cell lung carcinoma (NYH); format: in vivo, human tumour in nude mice
Description: In addition the antitumour effect of the compounds of the present invention was determined in nude mice carrying a human small cell lung carcinoma (NYH).
Nude mice were inoculated subcutaneously with a 0.2 ml NYH cell suspension (5×10^7 cells/ml). Two weeks after inoculum animals were divided in treatment and control groups. All mice were dosed p.o. once daily according to group from day 14 to 28.

SMILES: Sc1ncnc2nc[nH]c12 [6-Mercaptopurine, reference compound]
- Time to 50% of animals dead of cancer ([1]; 10 mg/kg p.o. once daily): 12.2 days

SMILES: O=P1(N(CCCl)CCCl)NCCCO1 (stereo not drawn) [Cyclophosphamide, reference compound]
- Time to 50% of animals dead of cancer ([1]; 0.3 mg/kg p.o. once daily): 19.1 days

SMILES: N#CN=C(NCCCOc1ccccc1)Nc1ccncc1 [Example No. 5, N-Cyano-N'-(3-phenoxypropyl)-N"-4-pyridylquanidine]
- pIC50 [2]: 5.48
- CC50 [3]: > 100000 nM
- Time to 50% of animals dead of cancer ([1]; 10 mg/kg p.o. once daily): 12.0 days
- Time to 50% of animals dead of cancer ([1]; 20 mg/kg p.o. once daily): 15.5 days
- Time to 50% of animals dead of cancer ([1]; 50 mg/kg p.o. once daily): a (No rats had died on day 14. Calculation of 50% dead not possible.)
- Time to 50% of animals dead of cancer ([1]; 100 mg/kg p.o. once daily): a (No rats had died on day 14. Calculation of 50% dead not possible.)

SMILES: N#CN=C(NCCCCOc1ccccc1)Nc1ccncc1 [Example No. 14, N-Cyano-N'-(4-phenoxybutyl)-N"-4-pyridylquanidine]
- pIC50 [2]: 6.77
- CC50 [3]: 100000 nM
- Time to 50% of animals dead of cancer ([1]; 20 mg/kg p.o. once daily): 10.8 days

SMILES: N#CN=C(NCCCCCOc1ccccc1)Nc1ccncc1 [Example No. 18, N-Cyano-N'-(5-phenoxypentyl)-N"-4-pyridylquanidine]
- pIC50 [2]: 6.12
- CC50 [3]: > 100000 nM
- Time to 50% of animals dead of cancer ([1]; 20 mg/kg p.o. once daily): 11.0 days

SMILES: N#CNC(=Nc1ccncc1)NCCCCCCCOc1ccccc1 [Example No. 33, N-Cyano-N'-(7-phenoxyheptyl)-N"-4-pyridylguanidine]
- pIC50 [4]: 9.24
- pIC50 [5]: 8.21

SMILES: N#CN=C(NCCCCCCOc1ccc(Cl)cc1)Nc1ccncc1 [Example No. 43, N-(6-p-Chlorophenoxyhexyl)-N'-cyano-N"-4-pyridylquanidine]
- pIC50 [4]: 8.72
- pIC50 [5]: 7.68
- tumour areas (range) ([6]; 25 mg/kg p.o. once daily day 14 to 28, day 11 (before dosing)): 12-36 mm^2
- tumour areas (range) ([6]; 25 mg/kg p.o. once daily day 14 to 28, day 14): 23-58 mm^2
- tumour areas (range) ([6]; 25 mg/kg p.o. once daily day 14 to 28, day 18, p < 0.05 vs untreated or vehicle): 12-59 mm^2
- tumour areas (range) ([6]; 25 mg/kg p.o. once daily day 14 to 28, day 21, p < 0.05 vs untreated or vehicle): 11-18 mm^2
- tumour areas (range) ([6]; 25 mg/kg p.o. once daily day 14 to 28, day 25, p < 0.05 vs untreated or vehicle): 4-14 mm^2
- tumour areas (range) ([6]; 25 mg/kg p.o. once daily day 14 to 28, day 28, p < 0.05 vs untreated or vehicle): 0--0 mm^2
- Number of tumours ([6]; 25 mg/kg p.o., day 11 (before dosing)): 6
- Number of tumours ([6]; 25 mg/kg p.o., day 14): 8
- Number of tumours ([6]; 25 mg/kg p.o., day 18): 8
- Number of tumours ([6]; 25 mg/kg p.o., day 21): 5
- Number of tumours ([6]; 25 mg/kg p.o., day 25): 3
- Number of tumours ([6]; 25 mg/kg p.o., day 28): 0
- tumour areas (range) ([6]; 50 mg/kg p.o. once daily day 14 to 28, day 11 (before dosing)): 17-64 mm^2
- tumour areas (range) ([6]; 50 mg/kg p.o. once daily day 14 to 28, day 14): 16-131 mm^2
- tumour areas (range) ([6]; 50 mg/kg p.o. once daily day 14 to 28, day 18, p < 0.05 vs untreated or vehicle): 8-109 mm^2
- tumour areas (range) ([6]; 50 mg/kg p.o. once daily day 14 to 28, day 21, p < 0.05 vs untreated or vehicle): 6-40 mm^2
- tumour areas (range) ([6]; 50 mg/kg p.o. once daily day 14 to 28, day 25, p < 0.05 vs untreated or vehicle): 3-27 mm^2
- tumour areas (range) ([6]; 50 mg/kg p.o. once daily day 14 to 28, day 28, p < 0.05 vs untreated or vehicle): 0--0 mm^2
- Number of tumours ([6]; 50 mg/kg p.o., day 11 (before dosing)): 6
- Number of tumours ([6]; 50 mg/kg p.o., day 14): 10
- Number of tumours ([6]; 50 mg/kg p.o., day 18): 10
- Number of tumours ([6]; 50 mg/kg p.o., day 21): 5
- Number of tumours ([6]; 50 mg/kg p.o., day 25): 5
- Number of tumours ([6]; 50 mg/kg p.o., day 28): 0

SMILES: N#CNC(=NCCCCCCOc1cc(Cl)c(Cl)cc1Cl)Nc1ccncc1 [Example No. 52, N-Cyano-N'-4-pyridyl-N"-(6-(2,4,5-trichlorophenoxy)hexyl)guanidine]
- pIC50 [4]: 8.85
- pIC50 [5]: 8.37

SMILES: COc1ccccc1OCCCCCCNC(=NC#N)Nc1ccncc1 [Example No. 53, N-Cyano-N'-(6-o-methoxyphenoxyhexyl)-N"-4-pyridylquanidine]
- pIC50 [4]: 9.28
- pIC50 [5]: 9.13

SMILES: N#CN=C(NCCCCCCOc1ccccc1Cl)Nc1ccncc1 [Example No. 54, N-(6-o-Chlorophenoxyhexyl)-N'-cyano-N"-4-pyridylquanidine]
- pIC50 [4]: 9.23
- pIC50 [5]: 8.85
